Earlier results in US8758826B2, “Cannabinoid receptor binding agents, compositions, and methods” (Wet Inc., priority 2011, dated 2014).

Assays:
CB2 = CB2 (Homo sapiens, UniProt P34972); conditions: higher for CB2 than CB1
histamine-induced itch = conditions: topically applied
keratinocyte = conditions: in vitro and in situ
[1] = tested on: rats with a partial urethral obstruction

Chain of CB2 (P34972 whole entry, species assumed): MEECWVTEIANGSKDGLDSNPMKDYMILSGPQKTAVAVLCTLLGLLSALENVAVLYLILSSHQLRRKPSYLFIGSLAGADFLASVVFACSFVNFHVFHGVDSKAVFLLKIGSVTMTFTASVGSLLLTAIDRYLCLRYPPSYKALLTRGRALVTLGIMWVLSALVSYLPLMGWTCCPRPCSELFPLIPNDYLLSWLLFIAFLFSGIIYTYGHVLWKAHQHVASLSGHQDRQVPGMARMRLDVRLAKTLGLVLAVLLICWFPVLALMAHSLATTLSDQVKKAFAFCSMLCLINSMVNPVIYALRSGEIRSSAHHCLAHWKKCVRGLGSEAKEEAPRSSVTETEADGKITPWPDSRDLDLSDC

COc1cc(/C=C/C(=O)CC(=O)/C=C/c2ccc(O)c(OC)c2)ccc1O [curcumin]
Apoptosis in melanoma cells (melanoma cells): induce apoptosis | Proliferation of melanoma cells (melanoma cells): suppress proliferation

CCCCCc1cc(O)c2c(c1)OC(C)(C)c1ccc(C)cc1-2 [Cannabinol]
Binding affinity to CB2 than to CB1 (CB2): 10 fold

CCCCCCC(C)(C)c1cc(O)c2c(c1)OC(C)(C)[C@@H]1CC=C(CO)C[C@@H]21 [HU-210]
Histamine-induced itch (histamine-induced itch): capable of reducing histamine-induced itch

CCCCC/C=C\C/C=C\C/C=C\C/C=C\CCCC(=O)NCCO [anandamide, N-arachidonoylethanolamide]
Cell death (keratinocyte): induces cell death | Keratinocyte proliferation (keratinocyte): markedly suppresses | Hair shaft elongation (human hair follicle): dose-dependently inhibited | Intraepithelial apoptosis and premature HF regression (catagen) (human hair follicle): induced | Proliferation of hair matrix keratinocytes (human hair follicle): dose-dependently inhibited

CCCCCCC(C)(C)c1cc(O)c([C@H]2CC(=O)[C@H]3C[C@@H]2C3(C)C)c(OC(=O)/C=C/C(=O)O)c1 [Cannabinor]
Bladder emptying [1]: improves bladder emptying

CCCCCc1cc(O)c2c(c1)OC(C)(C)[C@@H]1CCC(C)=C[C@@H]21 [THC, Δ9-tetrahydrocannabinol]
Action at CB1 (CB1): agonist | Melanin content of the hair follicle (hair follicle): significantly and dose-dependently suppressed | Hair shaft elongation (human hair follicle): dose-dependently inhibited | Intraepithelial apoptosis and premature HF regression (catagen) (human hair follicle): induced | Proliferation of hair matrix keratinocytes (human hair follicle): dose-dependently inhibited

Cc1c(C(=O)NN2CCCCC2)nn(-c2ccc(Cl)cc2Cl)c1-c1ccc(Cl)cc1 [SR141716]
Sperm motility (human sperm): enhance sperm motility
